Measured values from ChEMBL document CHEMBL1201862, “PubChem BioAssay data set” (2004).
Where “and” joins values, the source holds several entries; their conditions need not be identical. Equal values may be shown once.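 Results reflect a 48-hour exposure of cells in 96-well plates to compound at five concentrations. Abbreviation: GI50, concentration required for 50% inhibition of growth.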 Calls of active or inactive are those of the source. No stated cut-off is given here; in the data, active = GI50 up to about 1.1 µM and inactive = higher.

Tests used:
Test in all cases: DTP human tumour cell line panel, 48 h
A498 = tested on: A498
BT-549 = tested on: BT-549
DLD-1 = tested on: DLD-1
DMS-114 = tested on: DMS-114
DMS-273 = tested on: DMS-273
DU-145 = tested on: DU-145
HCC 2998 = tested on: HCC 2998
HOP-18 = tested on: HOP-18
HOP-62 = tested on: HOP-62
KM-20L2 = tested on: KM-20L2
LXFL 529 = tested on: LXFL 529
M14 = tested on: M14
M19-MEL = tested on: M19-MEL
MCF7 = tested on: MCF7
MDA-MB-231 = tested on: MDA-MB-231
MDA-N = tested on: MDA-N
Malme-3M = tested on: Malme-3M
NCI/ADR-RES = tested on: NCI/ADR-RES
RXF 631 = tested on: RXF 631
SF-295 = tested on: SF-295
SK-MEL-28 = tested on: SK-MEL-28
SN12C = tested on: SN12C
SNB-19 = tested on: SNB-19
SNB-75 = tested on: SNB-75
SNB-78 = tested on: SNB-78
T47D = tested on: T47D
U-251 = tested on: U-251
UACC-62 = tested on: UACC-62
UO-31 = tested on: UO-31
XF498 = tested on: XF498
786-0 = tested on: 786-0
A549 = tested on: A549
ACHN = tested on: ACHN
CAKI-1 = tested on: CAKI-1
CCRF-CEM = tested on: CCRF-CEM
COLO 205 = tested on: COLO 205
EKVX = tested on: EKVX
HCT-116 = tested on: HCT-116
HCT-15 = tested on: HCT-15
HL-60 = tested on: HL-60
HOP-92 = tested on: HOP-92
HT-29 = tested on: HT-29
IGROV-1 = tested on: IGROV-1
K562 = tested on: K562
KM12 = tested on: KM12
LOX IMVI = tested on: LOX IMVI
MOLT-4 = tested on: MOLT-4
NCI-H226 = tested on: NCI-H226
NCI-H23 = tested on: NCI-H23
NCI-H460 = tested on: NCI-H460
NCI-H522 = tested on: NCI-H522
OVCAR-3 = tested on: OVCAR-3
OVCAR-4 = tested on: OVCAR-4
OVCAR-5 = tested on: OVCAR-5
OVCAR-8 = tested on: OVCAR-8
RPMI-8226 = tested on: RPMI-8226
RXF 393 = tested on: RXF 393
SF-268 = tested on: SF-268
SF-539 = tested on: SF-539
SK-MEL-2 = tested on: SK-MEL-2
SK-MEL-5 = tested on: SK-MEL-5
SK-OV-3 = tested on: SK-OV-3
SR = tested on: SR
SW-620 = tested on: SW-620
TK-10 = tested on: TK-10
UACC-257 = tested on: UACC-257

Measured: GI50

CN(C)C(=S)SSC(=S)N(C)C [THIRAM]
active: DMS-114 0.124 µM | DMS-273 0.285 µM | M19-MEL 0.581 µM
inactive: A498 45.8 µM and > 60 µM | BT-549 17.2 µM and 14.2 µM | DLD-1 2.59 µM | DU-145 47.1 µM and 37.7 µM | HCC 2998 16.7 µM and 29.3 µM | HOP-18 > 100 µM | HOP-62 > 67.9 µM | KM-20L2 1.64 µM | LXFL 529 1.98 µM | M14 17.3 µM and 20.6 µM | MCF7 20.8 µM and 17.7 µM | MDA-MB-231 16.8 µM and 20.2 µM | MDA-N 19.1 µM and 14.1 µM | Malme-3M 20.2 µM and 12.4 µM | NCI/ADR-RES 17.2 µM | RXF 631 42.2 µM | SF-295 21 µM and 28.6 µM | SK-MEL-28 13 µM and 23.8 µM | SN12C 36.4 µM and 24.3 µM | SNB-19 > 57.8 µM and 54.6 µM | SNB-75 28.1 µM and 36 µM | SNB-78 > 75.5 µM | T47D 26.2 µM and 18.3 µM | U-251 14.3 µM and 17.9 µM | UACC-62 3.52 µM and 2.3 µM | UO-31 > 46.5 µM and 31.9 µM | XF498 4.48 µM

CCCCCCCCCCSS(=O)(=O)c1ccc(C)cc1
inactive: 786-0 6.1 µM | A498 18.5 µM | A549 14.9 µM | ACHN 16.9 µM | CAKI-1 15.9 µM | CCRF-CEM 2.24 µM | COLO 205 14.1 µM | DLD-1 12.5 µM | DMS-114 8.69 µM | DMS-273 9.27 µM | EKVX 12.4 µM | HCC 2998 17.5 µM | HCT-116 12.5 µM | HL-60 2.43 µM | HOP-18 17.9 µM | HOP-62 19.9 µM | HOP-92 12.9 µM | HT-29 9.08 µM | IGROV-1 15.1 µM | K562 12.1 µM | KM-20L2 16.6 µM | KM12 9.64 µM | LOX IMVI 4.45 µM | LXFL 529 13.6 µM | M14 10.4 µM | M19-MEL 11.2 µM | MOLT-4 2.03 µM | Malme-3M 15.6 µM | NCI-H226 19 µM | NCI-H23 17.3 µM | NCI-H460 8.13 µM | NCI-H522 6.4 µM | OVCAR-3 18.6 µM | OVCAR-4 15.6 µM | OVCAR-5 15.9 µM | OVCAR-8 14.1 µM | RPMI-8226 3.41 µM | RXF 393 15.8 µM | RXF 631 7.28 µM | SF-268 6.12 µM | SF-295 6.58 µM | SF-539 1.87 µM | SK-MEL-28 3.39 µM | SK-MEL-2 5.01 µM | SK-MEL-5 5.36 µM | SK-OV-3 22.3 µM | SN12C 10.5 µM | SNB-19 10.5 µM | SNB-75 2.3 µM | SNB-78 10.9 µM | SR 3.6 µM | SW-620 14.3 µM | TK-10 21 µM | U-251 4 µM | UACC-257 8.28 µM | UACC-62 6.82 µM | UO-31 15 µM | XF498 13.3 µM
13 µM: HCT-15
